Reference: patent US20030229164A1, “Low foam N-alkyltartarimide and N-alkylmalimide wetting agents” (priority 2002, published 2003)

Experiments:
[1] = Equilibrium surface tension of aqueous solutions, Wilhelmy plate method; type: physicochemical; conditions: for lowering the equilibrium surface tension of water (in words): aqueous solutions, Table 1 data; for Limiting EST: saturated solutions containing <0.1 wt % in distilled water, filtered, Wilhelmy plate
Experimental: where R^1 is a C5 to C10 alkyl group. […] The Wilhelmy plate method of measuring surface tension is described in L. Wilhelmy's article in Ann. Phys. 1863, 119, 177, which is incorporated by reference.
Saturated solutions containing <0.1 wt % of the materials of Examples 1-4 in distilled water were prepared. After shaking the solutions for ˜24 hours, the undissolved material was removed via filtration. Equilibrium surface tension data were obtained using the Wilhelmy plate method.
The limiting surface tensions represent the lowest surface tensions in water which can be achieved for a given surfactant regardless of the amount of surfactant used and is used to evaluate the effectiveness of a surfactant. Lower surface tensions would allow the elimination of defects upon application of a formulation onto low energy surfaces.

[2] = Foaming properties of aqueous solutions, procedure based upon ASTM D 1173-53; type: physicochemical; conditions: for Initial Foam: foam height at completion of addition
Experimental: The foaming properties of aqueous solutions of N-2-ethylhexyl tartarimide (Ex 1), N-decyl tartarimide (Ex 2), N-2-ethylhexyl malimide (Ex 4) and two representative nonionic surfactants, a commercial nonylphenol 15 mole ethoxylate surfactant and a commercial C8 alkyl glucoside surfactant, were examined using a procedure based upon ASTM D 1173-53.
In this test, a 0.1 wt % aqueous mixtures of the tartramides and malimide were prepared, any undissolved solids were filtered off, and the filtrate was added from an elevated glass pipette to a glass receiver containing the same filtrate. Regarding the commercial materials, a 0.1 wt % solution of the surfactant was added from an elevated glass pipette to a glass receiver containing the same solution. The foam height was measured at the completion of the addition (“Initial Foam Height”) and the time required for the foam to dissipate at the air-liquid interface (“Time to 0 Foam”) was recorded. This test provides a comparison between the foaming characteristics of various surfactants. In general, in coatings, inks, adhesives and agricultural formulations, foam is undesirable because it complicates handling and can lead to coating and print defects, and to inefficient application of agricultural materials.

[3] = 0.1 wt % aqueous mixture (filtrate) or solution

Row | Compound | lowering the equilibrium surface tension of water (in words) [1] | Limiting EST [1] [dyne/cm] | Foam after 5 min [2, 3] [cm] | Initial Foam [2, 3] [cm] | Time to zero foam ([2]; 0.1 wt % aqueous mixture (filtrate) or solution, values given in min) [min] | Time to zero foam ([2]; 0.1 wt % aqueous mixture (filtrate), values printed in sec) [min]
1 | CCCCCCCCCCN1C(=O)C(O)C(O)C1=O (racemic) [Example 2, N-Decyl DL-tartarimide] | particularly effective | 32.0 | 0 | 3.2 | 3.8 | –
2 | CCCCCCN1C(=O)C(O)C(O)C1=O (racemic) [Example 3, N-hexyl DL-tartarimide] | – | 51.8 | – | – | – | –
3 | CCCCC(CC)CN1C(=O)C(O)C(O)C1=O (centres unmarked) [Example 1, N-2-Ethylhexyl tartarimide] | particularly effective | 34.2 | 0 | 0 | – | 0
